Read-outs that look alike come from different tables or passages of the source.
Columns and labels:
[1] = Stability of benzothiazolim-squaraine dye and bioconjugates in aqueous solution, fluorescence intensity at 665 nm; format: physicochemical; settings: 665 nanometers, ambient temperature
[2] = Stability of carboxyphloroglucinol-squaraine dye and bioconjugates in aqueous solution, fluorescence intensity at 613 nm; format: physicochemical; settings: 613 nanometers (λex=515), ambient temperature
[3] = Stability of cyanine blue dye and conjugates in aqueous solution, fluorescence intensity at 670 nm; format: physicochemical; settings: 670 nanometers, ambient temperature
[4] = 822 nanometers, ambient temperature, aqueous solution
Procedure: An aqueous solution of indocyanine green (ICG) and the carriers, inulin, poly-d,l-aspartic acid, polyguanylic acid, MBSA, and γ-cyclodextrin were prepared and the fluorescence intensity was monitored at ambient temperature at various time intervals.

[5] = cited from earlier work
[6] = Blood clearance in rats monitored by fluorescence from ear capillaries; settings: rat, injected through lateral tail vein; excitation 780 nm, emission 830 nm
Procedure: A 500 μL portion of indocyanine green solution (0.8 mg/mL) was injected through the lateral tail vein of Sprague-Dawley or Fischer rats. Blood clearance of the dye bioconjugate was monitored by fluorescence signal emanating from the capillaries of the ear surface using a laser fluorescence apparatus (excitation, 780 nm; emission 830 nm).

[7] = in vivo; cited from earlier work

## O=C(O)CN1/C(=C/C2=C(O)C(=C/c3sc4ccccc4[n+]3CC(=O)O)/C2=O)Sc2ccccc21 [Benzothiazolim Dye/Water, Benzothiazolium Squaraine Dye]
[1]; 2 Hours
  Percent Decrease in Fluorescence: 92%
[1]; 4 Hours
  Percent Decrease in Fluorescence: 64%
[1]; 24 Hours
  Percent Decrease in Fluorescence: 46%

## O=C(O)C1=C(O)/C(=C2/C(=O)C(c3c(O)cc(O)c(C(=O)O)c3O)=C2O)C(O)=CC1=O [Carboxyphloroglucinol Squaraine Dye]
[2]; 2 Hours
  Percent Decrease in Fluorescence: 13%
[2]; 4 Hours
  Percent Decrease in Fluorescence: 13%
[2]; 24 Hours
  Percent Decrease in Fluorescence: 50%

## O=C(O)CN1/C(=C/C=C/C=C/c2sc3ccccc3[n+]2CC(=O)O)Sc2ccccc21 [Cyanine Blue Dye/Water, Cyanine Blue Dye]
[3]; 2 Hours
  Percent Decrease in Fluorescence: 20%
[3]; 4 Hours
  Percent Decrease in Fluorescence: 42%
[3]; 24 Hours
  Percent Decrease in Fluorescence: 99%

## CC1(C)C(/C=C/C=C/C=C/C=C2/N(CCCCS(=O)(=O)O)c3ccc4ccccc4c3C2(C)C)=[N+](CCCCS(=O)(=O)O)c2ccc3ccccc3c21.[Na+].[Na+] [indocyanine green, Indocyanine Green Dye]
[4]; 2 Hours
  Percent Decrease in Fluorescence: 0%
[4]; 4 Hours
  Percent Decrease in Fluorescence: 19%
[4]; 24 Hours
  Percent Decrease in Fluorescence: 48%
[5]
  degradation in aqueous media: undergoes degradation in aqueous media with loss of fluorescence
[6]
  time constant (τ) for blood clearance: 138 s
[7]
  plasma half-life: very short
  uptake by the liver: rapidly taken up by the liver

From patent US6423547B1, “Non-covalent bioconjugates useful for diagnosis and therapy” (Mallinckrodt Inc., priority 1998, dated 2002)
